# Experimental data from paper PMC3996367, “Profiling of drugs and environmental chemicals for functional impairment of neural crest migration in a novel stem cell-based test battery” (Archives of Toxicology, 2014).
# Read-outs that look alike come from different tables or passages of the source.
# How the values were obtained:
# [1] = for Free conc. (FCC; free plasma concentration): calculated from CC and plasma protein binding
# [2] = tested on: plasma proteins; conditions: cited from earlier work
# [3] = cited from earlier work; for Clinical conc. (CC; total/maximal plasma concentration): human plasma, literature data mining, ref per-compound studies in Fig. S4; for Plasma concentration range / Plasma concentration, average: ref Laske et al. (2009)
# [4] = tested on: rats; conditions: single dose, oral gavage, adult male Long-Evans rats; ref Crofton et al. (2011); cited from earlier work
# [5] = tested on: hESC-derived neural crest cells (NCC); conditions: human
# [6] = tested on: mESC-derived neural stem cells (mESCn); conditions: mouse
# [7] = tested on: HEK293 cells; conditions: human
# [8] = tested on: migration of hESC-derived neural crest cells (NCC); experiment: MINC assay (migration inhibition of neural crest cells, UKN2); conditions: 48 h, in a non-cytotoxic concentration range
# [9] = 50 patients with Alzheimer's disease
molecule,measurement,setting,value
CCCc1nn(C)c2c(=O)[nH]c(-c3cc(S(=O)(=O)N4CCN(C)CC4)ccc3OCC)nc12 [Sildenafil],Free conc. (FCC; free plasma concentration),[1],11.0 nM
same,Plasma protein binding,[2]; ref Purvis et al. (2002),approximately 95%
CCC[C@H](NC(=O)[C@@H]1[C@H]2CCC[C@H]2CN1C(=O)[C@@H](NC(=O)[C@@H](NC(=O)c1cnccn1)C1CCCCC1)C(C)(C)C)C(=O)C(=O)NC1CC1 [Telaprevir],Free conc. (FCC; free plasma concentration),[1],1600 nM
same,Clinical conc. (CC; total/maximal plasma concentration),[3],5.1 µM
COCCCOc1cc(C[C@@H](C[C@H](N)[C@@H](O)C[C@H](C(=O)NCC(C)(C)C(N)=O)C(C)C)C(C)C)ccc1OC [Aliskiren],Free conc. (FCC; free plasma concentration),[1],166 nM
same,Clinical conc. (CC; total/maximal plasma concentration),[3],0.3265 µM
same,Protein binding,"[2]; moderate, ref Vaidyanathan et al. 2008",47-51%
CC(C)(C)C(O)C(Oc1ccc(Cl)cc1)n1cncn1 (centres unmarked) [triadimenol],"Dose causing transient CNS toxicity (hyperactivity, stereotyped behavior)",[4],50 mg/kg
Nc1ccc(S(=O)(=O)Nc2ncccn2)cc1 [Sulfadiazine],Concentration for hit finding in NCC (highest non-cytotoxic concentration in the UKN2 test system),[5],50 µM
same,Clinical concentration range (average Cmax),"[3]; human, in vivo",50-110
same,Cmax,"[3]; human, in vivo",200 to 440 µM
same,Degree of protein binding,[2]; human,50%
same,Highest non-cytotoxic conc. in mESCn,[6],> 50.0 µM
same,Highest non-cytotoxic conc. in HEK293,[7],100.0 µM
O=C(Nc1c(Cl)cncc1Cl)c1ccc(OC(F)F)c(OCC2CC2)c1 [Roflumilast],Free conc. (FCC; free plasma concentration),[1],0.2 nM
same,Clinical conc. (CC; total/maximal plasma concentration),[3],0.018 µM
O=C(NC[C@H]1CN(c2ccc(N3CCOCC3=O)cc2)C(=O)O1)c1ccc(Cl)s1 [Rivaroxaban],Free conc. (FCC; free plasma concentration),[1],41.4 nM
same,Clinical conc. (CC; total/maximal plasma concentration),[3],0.6896 µM
same,Unbound fraction in plasma,"[2]; PBPK model study, ref Grillo et al. (2012)",6%
COC1=C2C[C@@H](C)C[C@H](OC)[C@H](O)[C@@H](C)/C=C(\C)[C@H](OC(N)=O)[C@@H](OC)/C=C\C=C(/C)C(=O)NC(=CC1=O)C2=O [Geldanamycin],Effect on NCC migration in concentration-response study,[8],concentration-dependent effect
same,Clinical conc. (CC; total/maximal plasma concentration),[3],0.8 µM
C/C(O)=C(\C#N)C(=O)Nc1ccc(C(F)(F)F)cc1 [Teriflunomide],Free conc. (FCC; free plasma concentration),[1],54.0 nM
same,Clinical conc. (CC; total/maximal plasma concentration),[3],10.8 µM
same,Portion of free teriflunomide,"[2]; almost constant, ref not given",0.5%
same,Bound to plasma proteins,"[2]; primarily to albumin, no unit and ref not given",> 99.3
Erythropoietin,Clinical conc. (CC; total/maximal plasma concentration),[3],0.0003 µM
N[C@@H](CC(=O)N1CCn2c(nnc2C(F)(F)F)C1)Cc1cc(F)c(F)cc1F [Sitagliptin],Free conc. (FCC; free plasma concentration),[1],1200 nM
same,Clinical conc. (CC; total/maximal plasma concentration),[3],1.9 µM
same,Binding to plasma proteins,[2]; ref Herman et al. (2006a),38%
"COC(=O)c1ccc2c(c1)NC(=O)/C2=C(\Nc1ccc(N(C)C(=O)CN2CCN(C)CC2)cc1)c1ccccc1 [Nintedanib/ BIBF 1120, Nintedanib]",Free conc. (FCC; free plasma concentration),[1],70.8 nM
same,Clinical conc. (CC; total/maximal plasma concentration),[3],0.0742 µM
Neuregulin,Clinical conc. (CC; total/maximal plasma concentration),[3],6.3 µM
CN(C)CCCN1c2ccccc2Sc2ccc(Cl)cc21 [Chlorpromazine],Bound to plasma protein albumin,[2]; plasma,around 85%
Cc1ccc(NC(=O)c2ccc(CN3CCN(C)CC3)cc2)cc1Nc1nccc(-c2cccnc2)n1 [Imatinib],Effect on NCC migration in concentration-response study,[8],concentration-dependent effect
same,Concentration for hit finding in NCC (highest non-cytotoxic concentration in the UKN2 test system),[5],5 µM
"granulocyte colony-stimulating factor (protein, UniProt P09919 31-207, looked up) Granulocyte …: TPLGPASSLPQSFLLKCLEQVRKIQGDGAALQEKLVSECATYKLCHPEELVLLGHSLGIPWAPLSSCPSQALQLAGCLSQLHSGLFLYQGLLQALEGISPELGPTLDTLQLDVADFATTIWQQMEELGMAPALQPTQGAMPAFASAFQRRAGGVLVASHLQSFLEVSYRVLRHLAQP",Clinically relevant concentration,[1]; calculated from Laske et al. (2009) data,25 pg/mL
same,Plasma concentration range,[3]; 50 healthy controls,5 to 80 pg/mL
same,"Plasma concentration, average",[3]; 50 healthy controls,~ 28 pg/ml
same,Plasma concentration range,[3]; [9],10 to 40 pg/mL
same,"Plasma concentration, average",[3]; [9],~ 20 pg/ml
same,Clinical conc. (CC; total/maximal plasma concentration),[3],1.3e-06 µM
